# Like-named read-outs stand apart in the source and are kept apart here.
# Columns and labels:
# [1] = test system: rat hepatic microsomal PTPases; test: Inhibition of tri-phosphorylated insulin receptor dodecaphosphopeptide dephosphorylation by rat hepatic PTPases (malachite green); assay type: biochemical; conditions: rat liver microsomal fraction; for % Change from Control: PTPase activity, compound at 50 µM; for IC50: % Change from Control
# [2] = test system: diabetic (ob/ob) mice; test: Blood glucose lowering in diabetic (ob/ob) mice; assay type: in vivo; conditions: Mus musculus, po, cells marked a = no significant activity (p<0.05) at this dose
# [3] = biological target: T1, Human recombinant PTP1B (Homo sapiens, UniProt P18031); test: Inhibition of tri-phosphorylated insulin receptor dodecaphosphopeptide dephosphorylation by hPTP1B (malachite green); assay type: biochemical; conditions: recombinant PTP1B, dodecaphosphopeptide substrate
# T1 construct: made in house
# T1 sequence (P18031 1-435): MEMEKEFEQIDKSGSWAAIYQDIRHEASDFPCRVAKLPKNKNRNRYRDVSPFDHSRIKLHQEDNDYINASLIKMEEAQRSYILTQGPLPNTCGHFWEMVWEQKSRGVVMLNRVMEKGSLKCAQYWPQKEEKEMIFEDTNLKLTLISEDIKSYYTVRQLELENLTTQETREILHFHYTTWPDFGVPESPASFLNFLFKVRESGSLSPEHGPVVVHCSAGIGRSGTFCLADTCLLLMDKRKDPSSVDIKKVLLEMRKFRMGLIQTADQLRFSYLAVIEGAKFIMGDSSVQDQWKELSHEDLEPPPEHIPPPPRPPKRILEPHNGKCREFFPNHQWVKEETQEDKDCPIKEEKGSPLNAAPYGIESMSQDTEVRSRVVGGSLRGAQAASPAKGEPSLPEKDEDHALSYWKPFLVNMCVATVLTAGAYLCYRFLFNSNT
# [4] = read-out: % Change Insulin from Vehicle
# [5] = plasma glucose, read-out: % Change Glucose from Vehicle
% Change from Control [1],IC50 [3],IC50 [1],SMILES,"change in vivo at 100 mg/kg [2, 4]","change in vivo at 100 mg/kg [2, 5]","change in vivo at 25 mg/kg [2, 4]","change in vivo at 25 mg/kg [2, 5]"
,293 nM,,"CC(Cc1ccccc1)(Oc1ccc(-c2ccc(-c3c(Cc4ccccc4)oc4ccccc34)cc2)cc1)C(=O)O (stereo not shown) [Example 24, 2-[4'-(2-Benzyl-benzofuran-3-yl)-biphenyl-4-yloxy]-2-methyl-3-phenyl-propionic acid]",,,,-30.5%
,85 nM,20000 nM,"COc1ccc(Cc2sc3ccccc3c2-c2ccc(-c3ccc(O[C@H](Cc4ccccc4)C(=O)O)cc3)cc2)c(OC)c1 [Example 26, (2R)-2-{4'-[2-(2,4-Dimethoxy-benzyl)-benzo[b]thiophen-3-yl]-biphenyl-4-yloxy}-3-phenyl-propionic acid]",,,,
,122 nM,20600 nM,"O=C(O)[C@@H](Cc1ccccc1)Oc1ccc(-c2ccc(-c3c(Cc4ccc(O)c(O)c4)sc4ccccc34)cc2)cc1 [Example 28, (2R)-2-{4'-[2-(3,4-Dihydroxy-benzyl)-benzo[b]thiophene-3-yl)-biphenyl-4-yloxy]-3-phenyl-propionic acid]",,,,-20%
-19%,970 nM,,"O=C(O)[C@@H](Cc1ccccc1)Oc1ccc(-c2ccc(-c3ccsc3Cc3ccccc3)cc2)cc1 [Example 29, (2R)-2-[4'-(2-Benzyl-thiophene-3-yl)-biphenyl-4-yloxy]-3-phenyl-propionic acid]",,,,
,58 nM,17900 nM,"O=C(O)[C@@H](Cc1ccccc1)Oc1ccc(-c2ccc(-c3c(Cc4ccccc4)sc4ccccc34)cc2)cc1Br [Example 36, (2R)-2-[4'-(2-Benzyl-benzo[b]thiophene-3-yl)-3-bromo-biphenyl-4-yloxy]-3-phenyl-propionic acid]",,,,
,25 nM,36800 nM,"O=C(O)[C@@H](Cc1ccccc1)Oc1c(Br)cc(-c2ccc(-c3c(Cc4ccccc4)sc4ccccc34)cc2)cc1Br [Example 37, (2R)-2-[4'-(2-Benzyl-benzo[b]thiophene-3-yl)-3,5-dibromo-biphenyl-4-yloxy]-3-phenyl-propionic acid]",,,,
,53 nM,19300 nM,"COc1ccc(-c2cc(-c3ccc(-c4c(Cc5ccccc5)sc5ccccc45)cc3)ccc2O[C@H](Cc2ccccc2)C(=O)O)cc1 [Example 38, (2R)-2-[4-(2-Benzyl-benzo[b]thiophene-3-yl)-4""-methoxy-[1,1';3',1""]terphenyl-4'-yloxy]-3-phenvl-propionic acid]",,,,
,178 nM,,O=C(O)CCCOc1ccc(-c2ccc(-c3c(Cc4ccccc4)sc4ccccc34)cc2)cc1Br [Example 42],,,9.9%,-10.6%
,341 nM,,"O=C(O)[C@@H](CCN1C(=O)c2ccccc2C1=O)Oc1ccc(-c2ccc(-c3c(Cc4ccccc4)oc4ccccc34)cc2)cc1 [Example 48, (2R)-2-[4'-(2-benzyl-benzofuran-3-yl)-biphenyl-4-yloxy]-4-(1,3-dioxo-1,3-dihydro-isoindol-2-yl)-butyric acid]",,,-30%,4.7%
,43 nM,,"COc1ccc(-c2cc(-c3ccc(-c4c(Cc5ccccc5)oc5ccccc45)cc3)ccc2O[C@@H](Cc2ccccc2)C(=O)O)cc1 [Example 55, (2S)-2-[4-(2-benzyl-benzofuran-3-yl)-4""-methoxy-[1,1';3',1'']terphenyl-4'-yloxy]-3-phenyl-propionic acid]",,,35.4%,-13.6%

# Continued, molecule first:
SMILES,% Change from Control [1],IC50 [3],IC50 [1],"change in vivo at 100 mg/kg [2, 4]","change in vivo at 100 mg/kg [2, 5]","change in vivo at 25 mg/kg [2, 4]","change in vivo at 25 mg/kg [2, 5]"
"O=C(O)[C@H](Cc1ccccc1)Oc1ccc(-c2ccc(-c3c(Cc4ccccc4)oc4ccccc34)cc2)cc1 [Example 1, (2S)-2-[4'-(2-Benzyl-benzofuran-3-yl)-biphenyl-4-yloxy]-3-phenyl-propionic acid]",-53%,322 nM,,17%,-40.3%,,
COc1ccc(-c2cc(-c3ccc(-c4c(Cc5ccccc5)sc5ccccc45)cc3)cc(-c3ccc(OC)cc3)c2OCC(=O)O)cc1 [Example 2],,25 nM,28400 nM,,,11.2%,-25.5%
COc1ccc(-c2cc(-c3ccc(-c4c(Cc5ccccc5)sc5ccccc45)cc3)cc(Br)c2OCC(=O)O)cc1 [Example 3],,29 nM,29900 nM,,,23.5%,-29.9%
"CCCCc1oc2ccccc2c1-c1ccc(-c2ccc(OC(Cc3ccccc3)C(=O)O)cc2)cc1 (stereo not shown) [Example 10, 2-[4'-(2-Butyl-benzofuran-3-yl)-biphenyl-4-yloxy]-3-phenyl-propionic acid]",-72%,440 nM,,-51.9%,-34.2%,,
"O=C(O)C(Cc1ccccc1)Oc1ccc(-c2ccc(-c3c(Cc4ccccc4)oc4ccccc34)cc2)cc1 (stereo not shown) [Example 11, 2-[4'-(2-Benzyl-benzofuran-3-yl)-biphenyl-4-yloxy]-3-phenyl-propionic acid]",-61%,270 nM,,-44.9%,-40.4%,,
"CCCCc1sc2ccccc2c1-c1ccc(-c2ccc(OC(Cc3ccccc3)C(=O)O)cc2)cc1 (stereo not shown) [Example 12, 2-[4'-(2-Butyl-benzo[b]thiopen-3-yl)-biphenyl-4-yloxy]-3-phenyl-propionic acid]",-50%,176 nM,,-15.8%,-27.5%,,
"O=C(O)C(Cc1ccccc1)Oc1ccc(-c2ccc(-c3c(Cc4ccccc4)sc4ccccc34)cc2)cc1 (stereo not shown) [Example 13, 2-[4'-(2-Benzyl-benzo[b]thiophen-3-yl)-biphenyl-4-yloxy]-3-phenyl-propionic acid]",-50%,,,5%,-36.7%,,
O=C(c1ccccc1)c1oc2ccccc2c1-c1ccc(-c2ccc(OC(Cc3ccccc3)C(=O)O)cc2)cc1 (stereo not shown) [Example 14],-55%,,,,-39%,,
"O=C(O)[C@@H](Cc1ccccc1)Oc1ccc(-c2ccc(-c3c(Cc4ccccc4)oc4ccccc34)cc2)cc1 [Example 15, (2R)-2-[4'-(2-Benzyl-benzofuran-3-yl)-biphenyl-4-yloxy]-3-phenyl-propionic acid]",-59%,348 nM,,4.1%,-35%,,
"C[C@@H](Oc1ccc(-c2ccc(-c3c(Cc4ccccc4)oc4ccccc34)cc2)cc1)C(=O)O [Example 17, (2R)-2-[4'-(2-Benzyl-benzofuran-3-yl)-biphenyl-4-yloxy]-propionic acid]",-63%,1320 nM,,-94.4%,13.7%,,
O=C(O)[C@@H](Cc1ccccc1)Oc1ccc(-c2ccc(-c3c(Cc4ccc(F)cc4)sc4ccccc34)cc2)cc1 [Example 19],,123 nM,21400 nM,1.1%,-27.7%,,
"CC1(C)Oc2ccc(Cc3sc4ccccc4c3-c3ccc(-c4ccc(O[C@H](Cc5ccccc5)C(=O)O)cc4)cc3)cc2O1 [Example 27, (2R) 2-{4'-[2-(2,2-Dimethyl-benzo[1,3]dioxol-5-ylmethyl)-benzo[b]thiophene-3-yl)-biphenyl-4-yloxy]-3-phenyl-propionic acid]",,77 nM,24900 nM,,,,

# From patent EP1077967B1, “BIPHENYL OXO-ACETIC ACIDS USEFUL IN THE TREATMENT OF INSULIN RESISTANCE AND HYPERGLYCEMIA” (Wyeth, priority 1998, dated 1999)
